The results in this text go back to PubChem BioAssay AID330 (DTP/NCI, 2004).

For this assay, the system named is P388 leukemia ip, CD2F1 mice, survival T/C. The assay can be described thus: NCI In Vivo Anticancer Drug Screen. Data for tumor model P388 Leukemia (intraperitoneal) in CD2F1 (CDF1) mice. The following applies: endpoint: median survival time, higher = longer survival. The method in brief: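 Mice carrying the transplanted tumor received test compound or vehicle. Survival was recorded in each group, and the value is the treated-group measurement divided by that of the vehicle-treated control group.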

[1] abbreviates: dose: 50.0 mg/kg/injection, schedule: Q01DX005 (ip), vehicle: Klucel (hydroxypropylcellulose) (HPC).
Where [2] appears, read: dose: 100.0 mg/kg/injection, schedule: Q04DX003 (ip), vehicle: saline.
The mark [3] stands for this setting: dose: 100.0 mg/kg/injection, schedule: Q01DX009 (ip), vehicle: Klucel (hydroxypropylcellulose) (HPC).
Where [4] appears, read: dose: 200.0 mg/kg/injection, schedule: Q01DX009 (ip), vehicle: Klucel (hydroxypropylcellulose) (HPC).
Setting [5] is: dose: 60.0 mg/kg/injection, schedule: Q01DX005 (ip), vehicle: saline with Tween-80.
The mark [6] stands for this setting: dose: 120.0 mg/kg/injection, schedule: Q01DX005 (ip), vehicle: saline with Tween-80.
Setting [7] is: dose: 240.0 mg/kg/injection, schedule: Q01DX005 (ip), vehicle: saline with Tween-80.
The mark [8] stands for this setting: dose: 100.0 mg/kg/injection, schedule: Q01DX001 (ip), vehicle: saline with Tween-80.
Setting [9] is: dose: 200.0 mg/kg/injection, schedule: Q01DX001 (ip), vehicle: saline with Tween-80.
Where [10] appears, read: dose: 50.0 mg/kg/injection, schedule: Q01DX009 (ip), vehicle: saline with Tween-80.
Setting [11] is: dose: 100.0 mg/kg/injection, schedule: Q01DX009 (ip), vehicle: saline with Tween-80.
Setting [12] is: dose: 200.0 mg/kg/injection, schedule: Q01DX009 (ip), vehicle: saline with Tween-80.

Where “and” joins values, the source holds several entries; their conditions need not be identical. Identical values can stand only once. Toxic doses and inconclusive results are not listed.

Take `Nc1cc(Cl)c(N(CCO)C2=NCCN2)c(Cl)c1`: the T/C is 92 % of control (dose: 12.5 mg/kg/injection, schedule: Q01DX005 (ip), vehicle: Klucel (hydroxypropylcellulose) (HPC)); 88 % of control (dose: 25.0 mg/kg/injection, schedule: Q01DX005 (ip), vehicle: Klucel (hydroxypropylcellulose) (HPC)); 105 % of control and 89 % of control under setting [1].

Take `COc1ccc(-c2cc3cc(OC)c(OC)cc3c[n+]2C)cc1OC`: the T/C is 96 % of control (dose: 25.0 mg/kg/injection, schedule: Q04DX003 (ip), vehicle: saline); 94 % of control (dose: 50.0 mg/kg/injection, schedule: Q04DX003 (ip), vehicle: saline); 104 % of control under setting [2].

With `C=C(N=[N+]=[N-])c1ccccc1`, the T/C by setting is: (dose: 6.25 mg/kg/injection, schedule: Q01DX009 (ip), vehicle: other) 101 % of control; (dose: 12.5 mg/kg/injection, schedule: Q01DX009 (ip), vehicle: other) 106 % of control; (dose: 25.0 mg/kg/injection, schedule: Q01DX009 (ip), vehicle: other) 112 % of control; (dose: 50.0 mg/kg/injection, schedule: Q01DX009 (ip), vehicle: other) 117 % of control; (dose: 100.0 mg/kg/injection, schedule: Q01DX009 (ip), vehicle: other) 107 % of control.

Take `Cc1ccc(C(C)C)c(OC(=O)Nc2ccc(Cl)cc2)c1`: the T/C was 100 % of control (dose: 50.0 mg/kg/injection, schedule: Q01DX009 (ip), vehicle: Klucel (hydroxypropylcellulose) (HPC)); 87 % of control under setting [3]; 95 % of control under setting [4]; 92 % of control (dose: 400.0 mg/kg/injection, schedule: Q01DX009 (ip), vehicle: Klucel (hydroxypropylcellulose) (HPC)).

As for `O=[N+]([O-])C1CCC(N=Nc2c(O)ccc3ccccc23)CC1` (configuration not stated), the T/C was 96 % of control under setting [5], 99 % of control under setting [6] and 99 % of control under setting [7].

On to `NC(N)=N/N=C1\C(=O)N(c2cccc([N+](=O)[O-])c2)C(=O)C1C(=O)Nc1cccc([N+](=O)[O-])c1` (configuration not stated), for which the T/C reads like this: under setting [8], 102 % of control; under setting [9], 100 % of control.

On to `ClC1=CC(Cl)=C2N=C(N3CCCC3)N=C3N=C(C(Cl)(Cl)Cl)N=C1N32`, for which the T/C was 96 % of control (dose: 60.0 mg/kg/injection, schedule: Q01DX005 (ip), vehicle: Klucel + Tween-80); 96 % of control (dose: 120.0 mg/kg/injection, schedule: Q01DX005 (ip), vehicle: Klucel + Tween-80); 87 % of control (dose: 240.0 mg/kg/injection, schedule: Q01DX005 (ip), vehicle: Klucel + Tween-80).

Turning to `Cc1ccc2nc(N(C)C)cc(N(C)C)c2c1`, the T/C by setting is: (dose: 6.25 mg/kg/injection, schedule: Q01DX009 (ip), vehicle: Klucel (hydroxypropylcellulose) (HPC)) 99 % of control; (dose: 12.5 mg/kg/injection, schedule: Q01DX009 (ip), vehicle: Klucel (hydroxypropylcellulose) (HPC)) 110 % of control; (dose: 25.0 mg/kg/injection, schedule: Q01DX009 (ip), vehicle: Klucel (hydroxypropylcellulose) (HPC)) 103 % of control.

For the compound `CN(C)c1ccc2c(c1)Cc1cc(N=C3C=CC(=O)O3)ccc1-2`, the T/C was 100 % of control under setting [10]; 100 % of control under setting [11]; 109 % of control (dose: 100.0 mg/kg/injection, schedule: Q04DX003 (ip), vehicle: saline with Tween-80); 100 % of control under setting [12]; 95 % of control (dose: 200.0 mg/kg/injection, schedule: Q04DX003 (ip), vehicle: saline with Tween-80).

As to `Cc1c(N)c(=O)oc2cc3occc(=O)c3cc12`, the T/C is, setting by setting: under setting [8], 91 % of control; under setting [9], 89 % of control; (dose: 400.0 mg/kg/injection, schedule: Q01DX001 (ip), vehicle: saline with Tween-80) 92 % of control.

In the case of `COc1c2c(cc3c1-c1ccc(OC)c(=O)cc1C(NC(C)=O)CC3)OCO2` (configuration not stated), the T/C reads like this: (dose: 0.47 mg/kg/injection, schedule: Q01DX009 (ip), vehicle: distilled water + Tween-80) 157 % of control; (dose: 0.94 mg/kg/injection, schedule: Q01DX009 (ip), vehicle: distilled water + Tween-80) 166 % of control; (dose: 3.75 mg/kg/injection, schedule: Q01DX009 (ip), vehicle: distilled water + Tween-80) 155 % of control; (dose: 7.5 mg/kg/injection, schedule: Q01DX009 (ip), vehicle: distilled water + Tween-80) 161 % of control.

Regarding `COc1cc(C(=O)NCC(=O)NN=C(C)C)cc(OC)c1OC`, the T/C by setting is: under setting [1], 104 % of control; (dose: 100.0 mg/kg/injection, schedule: Q01DX005 (ip), vehicle: Klucel (hydroxypropylcellulose) (HPC)) 95 % of control; (dose: 200.0 mg/kg/injection, schedule: Q01DX005 (ip), vehicle: Klucel (hydroxypropylcellulose) (HPC)) 107 % of control.

On to `CC(=O)/C(=C\c1ccccc1)C(=O)CCN(C)C`, for which the T/C by setting is: (dose: 25.0 mg/kg/injection, schedule: Q01DX005 (ip), vehicle: saline with Tween-80) 100 % of control; (dose: 50.0 mg/kg/injection, schedule: Q01DX005 (ip), vehicle: saline with Tween-80) 103 % of control.

As for `CN1C(c2ccccc2)C2CCCC(C2O)C1c1ccccc1` (configuration not stated), the T/C reads like this: under setting [2], 97 % of control; (dose: 200.0 mg/kg/injection, schedule: Q04DX003 (ip), vehicle: saline) 100 % of control; (dose: 400.0 mg/kg/injection, schedule: Q04DX003 (ip), vehicle: saline) 98 % of control.

For `CCC1OC(/C(C)=C/C(C)/C=C/C2C(C)C2/C=C/C2OC(CC(=O)O)CC(O)C2O)CC=C1C` (configuration not stated), the T/C reads like this: (dose: 16.82 mg/kg/injection, schedule: Q01DX009 (ip), vehicle: saline) 100 % of control; (dose: 33.65 mg/kg/injection, schedule: Q01DX009 (ip), vehicle: saline) 92 % of control; (dose: 67.3 mg/kg/injection, schedule: Q01DX009 (ip), vehicle: saline) 94 % of control.

Consider `c1ccc(Cc2nnc3n2CCC(c2ccccc2)S3)cc1` (configuration not stated), for which the T/C runs as follows: under setting [5], 102 % of control; under setting [6], 99 % of control; under setting [7], 95 % of control.

Take `CCC1CN2CCc3cc(OC)c(OC)cc3C2CC1(O)C#N` (configuration not stated): the T/C reads like this: under setting [3], 99 % of control; under setting [4], 102 % of control.

Take `CCCCCCCCC1CCC(=O)NC1=O` (configuration not stated): the T/C by setting is: under setting [5], 112 % of control; under setting [6], 104 % of control; under setting [7], 93 % of control.

As to `CC1CC(C)(C)N=C(C2(c3ccccc3)CC2)O1` (configuration not stated), the T/C is 109 % of control under setting [10], 109 % of control under setting [11] and 100 % of control under setting [12].

Turning to `CSCCC(C(=O)O)N1C(=O)C=CC1=O` (configuration not stated), the T/C was 97 % of control (dose: 11.25 mg/kg/injection, schedule: Q01DX009 (ip), vehicle: saline with Tween-80); 97 % of control (dose: 22.5 mg/kg/injection, schedule: Q01DX009 (ip), vehicle: saline with Tween-80); 100 % of control and 88 % of control (dose: 45.0 mg/kg/injection, schedule: Q01DX009 (ip), vehicle: saline with Tween-80).

As for `COC1=C(N)C(=O)c2ncccc2C1=O`, the T/C (dose: 3.12 mg/kg/injection, schedule: Q01DX009 (ip), vehicle: saline with Tween-80) was 101 % of control; the T/C (dose: 4.0 mg/kg/injection, schedule: Q01DX009 (ip), vehicle: DMSO) was 100 % of control; the T/C (dose: 6.25 mg/kg/injection, schedule: Q01DX009 (ip), vehicle: saline with Tween-80) is 95 % of control; the T/C (dose: 8.0 mg/kg/injection, schedule: Q01DX009 (ip), vehicle: DMSO) is 108 % of control; the T/C (dose: 12.5 mg/kg/injection, schedule: Q01DX009 (ip), vehicle: saline with Tween-80) was 94 % of control; the T/C (dose: 16.0 mg/kg/injection, schedule: Q01DX009 (ip), vehicle: DMSO) was 102 % of control.

As for `O=C(NC1COB(c2cccc([N+](=O)[O-])c2)OC1c1ccc([N+](=O)[O-])cc1)C(Cl)Cl` (configuration not stated), the T/C runs as follows: (dose: 60.0 mg/kg/injection, schedule: Q01DX005 (ip), vehicle: Klucel (hydroxypropylcellulose) (HPC)) 98 % of control; (dose: 120.0 mg/kg/injection, schedule: Q01DX005 (ip), vehicle: Klucel (hydroxypropylcellulose) (HPC)) 98 % of control; (dose: 240.0 mg/kg/injection, schedule: Q01DX005 (ip), vehicle: Klucel (hydroxypropylcellulose) (HPC)) 93 % of control.
